{"source": "patent US10265296B2", "about": "“Methods for the treatment of systemic disorders treatable with mast cell stabilizers, including mast cell related disorders” (Respivant Sciences GmbH, priority 2015, dated 2019)", "key": {"[1]": {"conditions": "cited from earlier work"}, "[2]": {"assay": "Single-dose, dose escalation study Part 1: pharmacokinetics of plasma and urine DSCG in healthy subjects", "format": "in vivo, human", "conditions": "same dose (40 mg)", "experimental": "• 1. […] 200 mg oral sodium cromoglycate solution (commercially available product), oral administration. […] 200 mg oral sodium cromoglycate solution (commercially available product), oral administration.\nPrior to each dosing day, subjects were admitted to the clinic in the morning for baseline (pre-dose) assessments. Subjects were required to remain in the clinic for 12 h after study drug administration on each dosing day. Treatment Visits were separated by a washout period of 2 to 5 days.\nUrine DSCG levels were measured for total DSCG excretion in the urine, and the bioavailability of the DSCG was calculated from the measured levels.\nPharmacokinetic parameters and plasma concentrations are listed and summarized. The summary statistics are presented as the geometric mean, arithmetic mean, arithmetic standard deviation (SD), min, median, max and n. The geometric statistics are not presented for Tmax. Analysis of variance (ANOVA) including terms for subject and treatment are used to calculate point estimates, and confidence intervals (CI) for treatment differences with respect to PK parameters (90% CI) are calculated."}}, "note": "Like-named read-outs stand apart in the source and are kept apart here.", "data": [{"smiles": "O=C(O)c1cc(=O)c2c(OCC(O)COc3cccc4oc(C(=O)O)cc(=O)c34)cccc2o1", "note": "[Cromolyn sodium, cromolyn sodium]", "values": [{"measurement": "oral bioavailability", "setting": "[1]; listed as cromolyn sodium", "result": "less than 1%"}, {"measurement": "oral bioavailability", "setting": "[1]; listed as cromolyn", "result": "about 1%"}, {"measurement": "lung deposition with the 30 L device compared with the 40 L device, indicated by AUC data", "setting": "[2]", "result": "surprisingly higher"}]}]}
